Measured values reported in EP0974351A2, “Medicament for preventing and treating gastrointestinal damage” (JOUVEINAL, priority 1998, dated 2000).

Columns and labels:
[1] = tested on: TNBS-Induced Chronic Colonic Allodynia; assay: TNBS-induced chronic colonic allodynia in rats (colonic distension threshold); format: in vivo, Male Sprague-Dawley rats; details: for Colonic Threshold: TNBS-treated rats, control 43.39, TNBS alone printed 1781; for dose relation of the inhibition of TNBS-induced colonic allodynia: gabapentin 100, 300, 500 mg/kg sc, CI-1008 30, 60, 100, 200 mg/kg sc; for colonic inflammatory effect of TNBS (colon weight, area of hyperemia and necrosis, colonic myeloperoxidase content): sc 30 minutes before measurement, Day 7 after TNBS
Description: GABA analogs were evaluated in rats suffering from chronic visceral allodynia induced by trinitrobenzene sulfonic acid (TNBS).
In humans, digestive disorders are often associated with visceral pain. In these pathologies, the visceral pain threshold is decreased, indicating a visceral hypersensitivity. Consequently, the following study was designed to evaluate the effect of injection of TNBS into the colon on visceral pain threshold in an experimental model of colonic distension.
Male Sprague-Dawley rats weighing 340 to 400 g were used in the study. The animals were housed three per cage in a regulated environment (20 ± 1°C, 50 ± 5% humidity, with light 8:00 AM to 8:00 PM). Under anethesia (ketamine 80 mg/kg i.p.; acepromazin 12 mg/kg i.p.), TNBS (50 mg/kg), or saline (1.5 mL/kg) was injected into the proximal colon (1 cm from the cecum). After the surgery, animals were individually housed in the regulated environment.
A balloon catheter (5-6 cm length) was inserted through the anus into the colon and kept in position (tip of balloon 5 cm from the anus) by taping the catheter to the base of the tail. The balloon was progressively inflated by step of 5 mm Hg, from 0 to 75 mm Hg, each step of inflation lasting 30 seconds. Each cycle of colonic distension was controlled by a standard barostat. The threshold corresponds to the pressure which produced the first abdominal contraction, at which time the cycle of distension was discontinued. To determine the colonic threshold, four cycles of distension were performed on the same animal.
In a second series, a group of eight rats treated with TNBS were subjected to a colonic distension session.
In a third series, a group of eight rats treated with TNBS received a subcutaneous (sc) injection of gabapentin or CI-1008 30 minutes prior to initiation of the colonic distension cycle.
All test compounds were dissolved in saline except TNBS. TNBS was dissolved in EtOH 30% (w/v). Subcutaneous injection of vehicle was given in a volume of […].
Statistical significance between each group was determined using a one-way ANOVA followed by Student's unpaired t-test. Differences were considered statistically significant at p <0.05.
Pain threshold (pressure of distension inducing the first abdominal contraction) after distal colonic distension was determined at Day 7 in two groups of awake rats: control animals and TNBS-treated animals. […] Inflammatory parameters (colon weight, area of hyperemia and necrosis and colonic myeloperoxidase content) were measured in the proximal colon at Day 7 after TNBS treatment.
Gabapentin (100, 300, and 500 mg/kg sc) and CI-1008 (30, 60, 100, and 200 mg/kg sc) were administered 30 minutes before colonic distension and measurement of the inflammatory parameters.

PGE2 = PGE2 content of gastric mucosa biopsies (ELISA) in indomethacin-treated rats; format: in vivo, Male CD-Sprague-Dawley rats; details: for effect on the inhibition of PGE2 caused by indomethacin: any dose tested (1-200 mg/kg orally)
Description: Male CD-Sprague-Dawley rats (132-202 g) were received and housed in a room with controlled temperature, humidity, and 12-hour light/dark cycle. After a period of acclimatization of 4 to 5 days, and after a 24-hour food fasting period, animals were used for the study described below.
Gabapentin or pregabalin (CI-1008) were dissolved in water and administered orally at the following doses: 1, 10, 100, and 200 mg/kg in a volume of 1 mL. Control animals were dosed with an equal volume of vehicle (1 mL of water). Sixty minutes later, all the animals received 1 mL of a solution of 80 mg/kg indomethacin dissolved in 5% aqueous NaHCO3. Control animals received 1 mL of 5% aqueous NaHCO3 orally. Experimental groups were as follows:
Animals were sacrificed by decapitation 4 hours post-indomethacin administration. The stomach was removed and opened along the greater curvature and its image digitized and stored on an optical disk using a 486-based PC computer equipped with CUE3 system imaging analysis software (Olympus Corp., Marietta, Georgia, USA). Two 6-mm biopsies were taken from a constant region of the gastric mucosa located in each side of the glandular portion of the stomach and their PGE2 content was measured using a commercially available ELISA kit (Assay Designs Inc., Ann Arbor, Michigan, USA). The presence of gastric damage was determined using the retrieved electronic image, and the extent of damage was measured using the CUE3 imaging software. Data are expressed as a percent of gastric area damaged and the PGE2 content (pg/mL).

[2] = 1 mg/kg orally before indomethacin 80 mg/kg, control 9525.27 ± 156.00, indomethacin + vehicle 1908.03 ± 72.31
[3] = 10 mg/kg orally before indomethacin 80 mg/kg, indomethacin + vehicle 1908.03 ± 72.31
[4] = 100 mg/kg orally before indomethacin 80 mg/kg, indomethacin + vehicle 1908.03 ± 72.31
[5] = 200 mg/kg orally before indomethacin 80 mg/kg, indomethacin + vehicle 1908.03 ± 72.31

Row | SMILES | Colonic Threshold ([1]; 100 mg/kg sc) [mm Hg] | Colonic Threshold ([1]; 300 mg/kg sc) [mm Hg] | effect of TNBS on colonic pain (in words) ([1]; 500 mg/kg sc) | Colonic Threshold ([1]; 500 mg/kg sc) [mm Hg] | dose relation of the inhibition of TNBS-induced colonic allodynia [1] | colonic inflammatory effect of TNBS (colon weight, area of hyperemia and necrosis, colonic myeloperoxidase content) [1] | PGE2 Synthesis (PGE2; [2]) [pg/mL] | PGE2 Synthesis (PGE2; [3]) [pg/mL] | PGE2 Synthesis (PGE2; [4]) [pg/mL] | PGE2 Synthesis (PGE2; [5]) [pg/mL] | effect on the inhibition of PGE2 caused by indomethacin (PGE2) | Colonic Threshold ([1]; 30 mg/kg sc 30 min before colonic distension, Day 7) [mm Hg] | Colonic Threshold ([1]; 60 mg/kg sc) [mm Hg] | allodynia induced by TNBS (in words) ([1]; 100 mg/kg sc) | Colonic Threshold ([1]; 200 mg/kg sc) [mm Hg]
1 | NCC1(CC(=O)O)CCCCC1 [Gabapentin, 1-(aminomethyl)-cyclohexane acetic acid] | 22.03 | 24.69 | completely blocked | 36.88 | inhibited in a dose-related manner | neither gabapentin nor CI-1008 inhibited | 1783.66 ± 73.47 | 3065.78 ± 137.19 | 2997.90 ± 226.80 | 2615.74 ± 165.36 | Neither gabapentin nor CI-1008, at any dose tested, were able to significantly modify this effect | – | – | – | –
2 | CC(C)C[C@H](CN)CC(=O)O [CI-1008, (S)-3-(aminomethyl)-5-methylhexanoic acid] | 33.13 | – | – | – | dose-related inhibition | neither gabapentin nor CI-1008 inhibited | 1209.95 ± 105.50 | 2666.16 ± 307.45 | 3994.45 ± 318.95 | 3288.92 ± 407.43 | Neither gabapentin nor CI-1008, at any dose tested, were able to significantly modify this effect | 2172 | 2547 | completely suppressed | 40.47
